Experimental data reported in ChEMBL document CHEMBL1150656, “Constituents of the stigmas of Crocus sativus and their tyrosinase inhibitory activity” (J Nat Prod, 2002).
pIC50: −log10 of the molar value.

Target: T1, Tyrosinase (Agaricus bisporus, UniProt O42713)
T1 sequence (O42713 whole entry): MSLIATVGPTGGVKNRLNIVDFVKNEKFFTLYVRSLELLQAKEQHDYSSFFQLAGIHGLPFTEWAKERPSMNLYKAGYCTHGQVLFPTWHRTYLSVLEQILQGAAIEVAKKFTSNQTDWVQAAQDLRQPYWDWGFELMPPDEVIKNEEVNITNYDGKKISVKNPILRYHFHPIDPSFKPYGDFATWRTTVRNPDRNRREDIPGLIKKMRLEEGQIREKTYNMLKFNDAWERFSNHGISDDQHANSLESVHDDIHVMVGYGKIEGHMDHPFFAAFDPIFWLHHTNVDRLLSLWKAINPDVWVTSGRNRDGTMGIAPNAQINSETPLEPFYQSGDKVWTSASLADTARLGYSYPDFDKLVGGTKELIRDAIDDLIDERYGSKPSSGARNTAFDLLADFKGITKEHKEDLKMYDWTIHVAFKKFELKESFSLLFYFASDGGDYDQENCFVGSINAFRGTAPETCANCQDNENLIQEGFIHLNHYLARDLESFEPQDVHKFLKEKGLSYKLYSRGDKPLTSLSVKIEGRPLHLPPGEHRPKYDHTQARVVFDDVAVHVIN
Description: Inhibition of mushroom tyrosinase

## CC(/C=C/C=C(\C)C(=O)O)=C\C=C\C=C(C)\C=C\C=C(/C)C(=O)O[C@@H]1O[C@H](CO[C@@H]2O[C@H](CO)[C@@H](O)[C@H](O)[C@H]2O)[C@@H](O)[C@H](O)[C@H]1O [CROCIN 3]
  pIC50: 3.02

## CC(/C=C/C=C(\C)C(=O)O[C@@H]1O[C@H](CO[C@@H]2O[C@H](CO)[C@@H](O)[C@H](O)[C@H]2O)[C@@H](O)[C@H](O)[C@H]1O)=C\C=C\C=C(C)\C=C\C=C(/C)C(=O)O[C@@H]1O[C@H](CO[C@@H]2O[C@H](CO)[C@@H](O)[C@H](O)[C@H]2O)[C@@H](O)[C@H](O)[C@H]1O [CROCIN]
  pIC50: 3.85

## CC1=C([C@@H](O)CC(=O)O)C(C)(C)C[C@@H](O)C1 [CROCUSATIN H]
  pIC50: 3.06

## Oc1ccc(O)cc1 [HYDROQUINONE]
  pIC50: 2.35
